Positions of bridges follow the written chain, without caps; N, C: chain ends. Non-standard residues stand in square brackets, D forms with d. Residues, ends and D or L forms follow the SMILES beside them.
Experiments:
[1] = molecular target: T1, GDP-bound Gαs (Homo sapiens, UniProt P63092); test: Bio-layer interferometry (BLI) binding kinetics
T1 construct: hexahistidine (N, cleaved yes); made in house; host or cells: Escherichia coli BL21(DE3)
Procedure: (§1) BLI experiments were performed using an OctetRED384 instrument from ForteBio. All experiments were performed at 25° C. using BLI buffer (10 mM HEPES pH 7.4, 150 mM NaCl, 1 mM MgCl2, 0.05% Tween-20, 0.1% DMSO, 0.2 mM GppNHp or GDP). Cyclic peptides were diluted to a series of concentrations in BLI buffer plus 10 μM Biotin. Assays were conducted in Greiner 384well, black, flat bottom polypropylene plates containing the protein solutions, BLI buffer plus 10 μM Biotin for dissociation, and serial dilutions of cyclic peptides to be tested.
(§2) Biotinylated proteins were immobilized on Streptavidin biosensors by dipping sensors into plate wells containing protein solutions at a concentration of 100-150 nM. Protein loading is around 2-3 nm. Sensors loaded with proteins were moved and dipped into wells with BLI buffer plus 10 μM Biotin to block unlabeled Streptavidin. Association-dissociation cycles of compounds were started by moving and dipping sensors to cyclic peptides dilutions and BLI buffer plus 10 μM Biotin wells alternatively. Association and dissociation times were carefully determined to ensure full association and dissociation.
(§3) Raw kinetic data collected were processed with the Data Analysis software provided by the manufacturer using single reference subtraction in which buffer-only reference was subtracted (For GN13 analysis). Because GD20 analogs have a low level of background binding, we used a double reference subtraction (buffer-only reference and non-protein-loading reference) method to calculate their kinetics values. The resulting data were analyzed based on a 1:1 binding model from which kon and koff values were obtained and then Kd values were calculated.

[2] = molecular target: GppNHp-bound Gαs (Homo sapiens, UniProt P63092); test: Bio-layer interferometry (BLI) binding kinetics; set-up: hexahistidine (N, cleaved yes); made in house; host or cells: Escherichia coli BL21(DE3)
Procedure: as §1, §2, §3

[3] = molecular target: T2, GTP- and GppNHp-bound Gαs Q227L mutant (Homo sapiens, UniProt P63092, Q227L); test: Adenylyl cyclase activation assay with oncogenic mutant; format: biochemical
T2 construct: made in house; host or cells: Escherichia coli BL21(DE3)
Excerpt: Gαs is one of the most frequently mutated G proteins in human cancer. Hotspot mutations in Gαs (Q227) disrupt its GTPase activity, thereby locking Gαs in the GTP-bound active conformation (Zachary et al., 1990).

[4] = molecular target: Gαs (Homo sapiens, UniProt P63092); test: GDP dissociation assay ([3H]GDP); format: biochemical; set-up: made in house; host or cells: Escherichia coli BL21(DE3)
Procedure: Gα proteins were diluted to 400 nM in the EDTA buffer (20 mM HEPES 7.5, 150 mM NaCl, 1 mM EDTA-Na 8.0, 2 mM DTT). [^3H]GDP (1 mCi/mL, 25.2 μM) was added to a final concentration of 1.2 μM, followed by cyclic peptides addition. After incubation at 20° C. for 30 minutes, the same volume of assay buffer ([…] HEPES-Na 7.5, 150 mM NaCl, 2 mM MgCl2, and 1 mM GDP) was added to initiate [^3H]GDP dissociation. At various points, […] was removed and mixed with 390 μL of ice-cold wash buffer (20 mM HEPES 7.5, 150 mM NaCl, 20 mM MgCl2). The mixture was immediately filtered through a mixed cellulose membrane (25 mm, 0.22 μm) held by a microanalysis filter holder (EMD Millipore). The membrane was washed by ice-cold wash buffer (500 μL×3), put in a 6-mL plastic vial and air-dried (room temperature 1.5 h). 5 mL of CytoScint-ES Liquid Scintillation Cocktail was added to each vial. After incubation overnight at room temperature, the vial was used for liquid scintillation counting with a LS 6500 Multi-Purpose Scintillation Counter.
The GDP dissociation curves were fitted by the software GraphPad Prism using the following equation to calculate the dissociation rates (koff): […]
in which “Y” is the radioactivity (Counts per minute) of the sample at time “X” (minutes), and Y0 is the calculated radioactivity of the sample at the time point 0.

Chain of Gαs (P63092 1-380 isoform P63092-2): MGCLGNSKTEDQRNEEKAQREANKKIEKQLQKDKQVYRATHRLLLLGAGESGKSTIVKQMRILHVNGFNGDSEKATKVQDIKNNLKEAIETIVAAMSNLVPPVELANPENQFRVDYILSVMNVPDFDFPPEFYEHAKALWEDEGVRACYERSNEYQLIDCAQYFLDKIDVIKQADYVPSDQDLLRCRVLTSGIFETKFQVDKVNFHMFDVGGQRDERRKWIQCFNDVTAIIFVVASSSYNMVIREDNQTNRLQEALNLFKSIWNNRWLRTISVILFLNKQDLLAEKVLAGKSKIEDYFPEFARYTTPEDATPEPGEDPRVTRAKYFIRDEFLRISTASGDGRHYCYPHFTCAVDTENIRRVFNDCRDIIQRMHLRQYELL
T2 sequence (P63092 7-380 isoform P63092-2 Q213L limits assumed): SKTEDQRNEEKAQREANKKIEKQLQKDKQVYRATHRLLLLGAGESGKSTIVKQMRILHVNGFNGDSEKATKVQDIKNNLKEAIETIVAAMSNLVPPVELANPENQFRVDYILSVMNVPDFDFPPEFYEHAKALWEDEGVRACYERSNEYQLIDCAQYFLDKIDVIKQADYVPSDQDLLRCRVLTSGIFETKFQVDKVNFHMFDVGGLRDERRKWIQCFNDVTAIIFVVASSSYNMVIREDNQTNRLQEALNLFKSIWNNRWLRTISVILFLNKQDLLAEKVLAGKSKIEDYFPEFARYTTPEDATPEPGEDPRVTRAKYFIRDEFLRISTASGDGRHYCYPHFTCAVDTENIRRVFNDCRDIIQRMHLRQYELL

| koff ([2]; GppNHp/Gαs) [s⁻¹] | kon ([2]; GppNHp/Gαs) [M⁻¹ s⁻¹] | Kd ([2]; immobilized GppNHp-bound Gαs) [nM] | inhibition of Gαs Q227L mutant in the adenylyl cyclase activation assay [3] | effect on Gαs GDP dissociation rates (koff) [4] | binding to GDP-bound Gαs ([1]; highest concentration tested) | SMILES | Kd ([1]; GDP/Gαs) [nM] | koff ([1]; GDP/Gαs) [s⁻¹] | kon ([1]; GDP/Gαs) [M⁻¹ s⁻¹] |
| --- | --- | --- | --- | --- | --- | --- | --- | --- | --- |
|  |  |  |  |  |  | CC[C@H](C)[C@@H]1NC(=O)[C@H](CC(C)C)NC(=O)[C@@H](Cc2ccc(O)cc2)NC(=O)CSC[C@@H](C(=O)NCC(N)=O)NC(=O)[C@@H]2CCCN2C(=O)[C@H](CC(C)C)NC(=O)[C@H](CC(N)=O)NC(=O)[C@H](CC(C)C)NC(=O)[C@H](C)NC(=O)[C@H](Cc2c[nH]c3ccccc23)NC(=O)[C@H](CCC(N)=O)NC(=O)[C@H](CCCNC(=N)N)NC(=O)[C@H](Cc2ccccc2)NC(=O)[C@H]([C@@H](C)O)NC1=O [GD20-F10L] ({CH2CO}-[dY]LITFRQWALNLPCG-NH2; thioether N-14) | 14.5 ± 0.4 | 0.00358 | 247000 |
| 0.0513 | 271000 | 190 ± 20 | inhibited | only slightly influenced | no detectable binding | CC[C@H](C)[C@@H]1NC(=O)[C@H](C)NC(=O)[C@H](Cc2ccc(O)cc2)NC(=O)[C@H](C(C)C)NC(=O)[C@H](CO)NC(=O)[C@H](CCC(=O)O)NC(=O)[C@H](Cc2ccccc2)NC(=O)[C@@H](Cc2ccc(O)cc2)NC(=O)CSC[C@@H](C(=O)NCC(N)=O)NC(=O)[C@H](CC(C)C)NC(=O)[C@H]([C@@H](C)O)NC(=O)CNC(=O)[C@H](Cc2c[nH]c3ccccc23)NC1=O [GN13] ({CH2CO}-[dY]FESVYAIWGTLCG-NH2; thioether N-13) |  |  |  |

— patent US20240336657A1, “G-ALPHA-S PEPTIDE INHIBITORS AND USES THEREOF” (The Regents of the University of California, priority 2021, published 2024)
